Assay results from US10329282B2, “Rho-associated protein kinase inhibitor, pharmaceutical composition comprising the same, as well as preparation method and use thereof” (Beijing Tide Pharmaceutical Co., Ltd., priority 2017, dated 2019).

target: ROCK2 (Homo sapiens (Human), UniProt O75116); assay: ROCK2 kinase IC50 assay (CISBIO HTRF KinEASE-STK S2 kit); format: biochemical; settings: ROCK2 from Carna Biosciences, 2 h incubation at room temperature
Procedure: The kinase IC50 was determined by a commercialized CISBIO kinase detection kit, HTRF KinEASE-STK S2 kit (62ST2PEC). ROCK2 (01-119) employed in the reaction was purchased from Carna Biosciences.
Before the assay, the following working solutions as needed were formulated with corresponding reagents according to the instruction of the kinase detection kit: 1×kinase buffer, 5×STK-52 substrate working solution (1.5 μM) and 5×ATP working solution (1.5 μM), 5×ROCK2 kinase working solution, 4×Streptavidin-XL665 working solution, and 4×STK-Ab-Cryptate 2 detection solution. Then the assay was performed according to the following procedure.
A solution of a compound at a concentration of 10000 nM was prepared with the 1×kinase buffer containing 2.5% DMSO. Gradient dilution of the solution of the compound was performed with the kinase buffer containing DMSO, so as to obtain solutions of a test compound at 9 different concentrations. In addition to wells of test compounds, a positive well (containing all the reagents except the compound) and a negative well (containing all the reagents except the test compound and kinase) were set. Except for the control wells (positive and negative wells), a solution of a test compound (4 μL) was added to each of the reaction wells, and a solution of 2.5% DMSO was added to the control wells. Then the substrate (2 μM, i.e., 2 μL 5×STK-S2 substrate working solution) was added to each of the reaction wells. The 5×ROCK2 kinase working solution (2 μL, containing 1.4 ng ROCK2 kinase) was added to each of the reaction wells except for the negative well, the volume of which was made up with the 1×kinase buffer (2 μL). The 5×ATP working solution (2 μL) was added to each of the reaction wells, and the mixtures were incubated at room temperature for 2 hours. After the kinase reaction was complete, the 4×Streptavidin-XL665 working solution was added to each of the reaction wells, the solutions were mixed, followed by immediate addition of the 4×STK-Ab-Cryptate 2 detection solution (5 μL), and the mixtures were incubated at room temperature for 1 hour. The fluorescence signal was read on ENVISION (Perkinelmer) (excitation wavelength: 320 nm, and emission wavelength: 665 nm and 615 nm). The inhibitory rate in each well was calculated based on the fluorescence intensity value: ER (Emission Ratio)=(fluorescence intensity at 665 nm/fluorescence intensity at 615 nm); inhibitory rate=(ERpositive−ERtest compound) (ERpositive−ERnegative)*100%. Curves were plotted and fitted to obtain the median inhibitory concentration (IC50) of each teat compound with the PRISM 5.0 software.

Sequence of ROCK2 (O75116 1-553): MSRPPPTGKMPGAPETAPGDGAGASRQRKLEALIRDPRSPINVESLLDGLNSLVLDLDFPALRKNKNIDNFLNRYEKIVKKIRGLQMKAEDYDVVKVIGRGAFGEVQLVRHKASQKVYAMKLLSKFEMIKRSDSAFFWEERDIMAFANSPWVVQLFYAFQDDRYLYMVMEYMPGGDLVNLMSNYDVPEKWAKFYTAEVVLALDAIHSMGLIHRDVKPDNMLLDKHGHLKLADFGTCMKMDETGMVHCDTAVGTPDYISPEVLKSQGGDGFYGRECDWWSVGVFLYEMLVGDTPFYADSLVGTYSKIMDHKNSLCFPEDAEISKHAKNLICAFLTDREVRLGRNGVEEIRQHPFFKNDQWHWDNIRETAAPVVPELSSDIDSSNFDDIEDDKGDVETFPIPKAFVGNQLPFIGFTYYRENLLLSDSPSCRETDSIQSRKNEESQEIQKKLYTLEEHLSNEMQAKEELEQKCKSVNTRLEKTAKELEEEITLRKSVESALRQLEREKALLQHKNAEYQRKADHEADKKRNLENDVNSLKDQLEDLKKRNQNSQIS

Row | SMILES | IC50 [nM]
1 | CN1CCC(n2cc(NC(=O)c3cc4ccc(-c5nccc(Nc6ccc7[nH]ncc7c6)n5)cc4[nH]3)cn2)CC1 [TDI01316, 6-(4-((1H-indazol-5-yl)amino)pyrimidin-2-yl)-N-(1-(1-methylpiperidin-4-yl)-1H-pyrazol-4-yl)-1H-indole-2-carboxamide] | 87
2 | O=C(Nc1ccc2[nH]ncc2c1)c1cc2ccc(-c3nccc(Nc4ccc5[nH]ncc5c4)n3)cc2[nH]1 [TDI01182, 6-(4-((1H-indazol-5-yl)amino)pyrimidin-2-yl)-N-(1H-indazol-5-yl)-1H-indole-2-carboxamide] | 46
3 | CN(CC#N)C(=O)c1cc2ccc(-c3nccc(Nc4ccc(-c5cn[nH]c5)cc4)n3)cc2[nH]1 [TDI01430] | 116
4 | CC(C)NC(=O)c1ccc2cc(-c3nccc(Nc4ccc5[nH]ncc5c4)n3)[nH]c2c1 [TDI01127, 2-(4-((1H-indazol-5-yl)amino)pyrimidin-2-yl)-N-isopropyl-1H-indole-6-carboxamide] | 100
5 | O=C(c1cc2ccc(-c3nccc(Nc4ccc(-c5cn[nH]c5)cc4)n3)cc2[nH]1)N1CCOC[C@H]1CO [TDI01853, (R)-(6-(4-((4-(1H-pyrazol-4-yl)phenyl)amino)pyrimidin-2-yl)-1H-indol-2-yl)(3-(hydroxymethyl)morpholino)methanone] | 275
6 | O=C(c1cc2ccc(-c3nccc(Nc4ccc(-c5cn[nH]c5)cc4)n3)cc2[nH]1)N1CCOCC1 [TDI01331, (6-(4-((4-(1H-pyrazol-4-yl)phenyl)amino)pyrimidin-2-yl)-1H-indol-2-yl)(morpholino)methanone] | 260
7 | O=C(Nc1ccccn1)c1cc2ccc(-c3nccc(Nc4ccc5[nH]ncc5c4)n3)cc2[nH]1 [TDI01311, 6-(4-((1H-indazol-5-yl)amino)pyrimidin-2-yl)-N-(pyridin-2-yl)-1H-indole-2-carboxamide] | 465

Second part, the molecule after the results:

Row | IC50 [nM] | SMILES
8 | 447 | CNC(=O)c1cc2ccc(-c3nccc(Nc4ccc5[nH]ncc5c4)n3)cc2s1 [TDI01109, 6-(4-((1H-indazol-5-yl)amino)pyrimidin-2-yl)-N-methylbenzo[b]thiophene-2-carboxamide]
9 | 101 | O=C(NC1CC1)c1cc2ccc(-c3nccc(Nc4ccc(-c5cn[nH]c5)cc4)n3)cc2[nH]1 [TDI01324, 6-(4-((4-(1H-pyrazol-4-yl)phenyl)amino)pyrimidin-2-yl)-N-cyclopropyl-1H-indole-2-carboxamide]
10 | 400 | CCNC(=O)c1cc2cc(-c3nccc(Nc4ccc(-c5cn[nH]c5)cc4)n3)ccc2[nH]1 [TDI01408]
11 | 46 | O=C(Nc1ccncc1Cl)c1cc2ccc(-c3nccc(Nc4ccc5[nH]ncc5c4)n3)cc2[nH]1 [TDI01290, 6-(4-((1H-indazol-5-yl)amino)pyrimidin-2-yl)-N-(3-chloropyridin-4-yl)-1H-indole-2-carboxamide]
12 | 410 | CN1CCC2(CC1)CCN(C(=O)c1cc3ccc(-c4nccc(Nc5ccc6[nH]ncc6c5)n4)cc3[nH]1)CC2 [TDI01320, (6-(4-((1H-indazol-5-yl)amino)pyrimidin-2-yl)-1H-indol-2-yl)(9-methyl-3,9-diazaspiro[5.5]undecan-3-yl)methanone]
13 | 100 | CC(C)NC(=O)c1cc2ccc(-c3nc(Nc4ccc5[nH]ncc5c4)c4scnc4n3)cc2[nH]1 [TDI01149, 6-(7-((1H-indazol-5-yl)amino)thiazolo[4,5-d]pyrimidin-5-yl)-N-isopropyl-1H-indole-2-carboxamide]
14 | 22 | CC(C)NC(=O)c1cc2ccc(-c3nccc(Nc4ccc5[nH]ncc5c4)n3)cc2[nH]1 [TDI01108, 6-(4-((1H-indazol-5-yl)amino)pyrimidin-2-yl)-N-isopropyl-1H-indole-2-carboxamide]
15 | 73 | CC(C)NC(=O)N1Cc2ccc(-c3nccc(Nc4ccc5[nH]ncc5c4)n3)cc2C1 [TDI01312, 5-(4-((1H-indazol-5-yl)amino)pyrimidin-2-yl)-N-isopropylisoindoline-2-carboxamide]
